These results are taken from US8722894B2, “1,3-disubstituted-4-phenyl-1H-pyridin-2-ones” (Janssen Pharmaceuticals, Inc., priority 2007, dated 2014).

The target of one data set is T1, human mGluR2 receptor (Homo sapiens, UniProt Q14416).
T1 construct: expressed in transfected cells; host or cells: CHO cells
Kind of data set: [35S]GTPγS binding assay (GTPγS-PAM), membranes from cells transfected with the human mGluR2 receptor. As to conditions: in presence of mGluR2 agonist glutamate at a predetermined EC25 concentration; CHO-cell membranes; averages of duplicate values of 11-concentration response curves; pEC50 = -logEC50; read-out: GTPgS - hR2 PAM pEC50 (converted). Format: biochemical. The procedure: The [^35S]GTPγS binding assay is a functional membrane-based assay used to study G-protein coupled receptor (GPCR) function whereby incorporation of a non-hydrolysable form of GTP, [^35S]GTPγS (guanosine 5′-triphosphate, labelled with […] ^35S), is measured. The G-protein α subunit catalyzes the exchange of guanosine 5′-diphosphate (GDP) by guanosine triphosphate (GTP) and on activation of the GPCR by an agonist, [^35S]GTPγS, becomes incorporated and cannot be cleaved to continue the exchange cycle (Harper (1998) Current Protocols in Pharmacology 2.6.1-10, John Wiley & Sons, Inc.). […] Here we describe the use of the [^35S]GTPγS binding assay using membranes from cells transfected with the human mGluR2 receptor and adapted from Schaffhauser et al ((2003) Molecular Pharmacology 4:798-810) for the detection of the positive allosteric modulation (PAM) properties of the compounds of this invention.
CHO-cells were cultured to pre-confluence and stimulated with 5 mM butyrate for 24 hours, prior to washing in PBS, and then collection by scraping in homogenisation buffer (50 mM Tris-HCl buffer, pH 7.4, 4° C.). Cell lysates were homogenized briefly (15 s) using an ultra-turrax homogenizer. The homogenate was centrifuged at 23 500×g for 10 minutes and the supernatant discarded. The pellet was resuspended in 5 mM Tris-HCl, pH 7.4 and centrifuged again (30 000×g, 20 min, 4° C.). The final pellet was resuspended in 50 mM HEPES, pH 7.4 and stored at −80° C. in appropriate aliquots before use. Protein concentration was determined by the Bradford method (Bio-Rad, USA) with bovine serum albumin as standard.
Measurement of mGluR2 positive allosteric modulatory activity of test compounds in membranes containing human mGluR2 was performed using frozen membranes that were thawed and briefly homogenised prior to pre-incubation in 96-well microplates (15 μg/assay well, 30 minutes, 30° C.) in assay buffer (50 mM HEPES pH 7.4, 100 mM NaCl, 3 mM MgCl2, 50 μM GDP, 10 μg/ml saponin,) with increasing concentrations of positive allosteric modulator (from 0.3 nM to 50 μM) and either a minimal pre-determined concentration of glutamate (PAM assay), or no added glutamate. For the PAM assay, membranes were pre-incubated with glutamate at EC25 concentration, i.e. a concentration that gives 25% of the maximal response glutamate, and is in accordance to published data (Pin et al. (1999) Eur. J. Pharmacol. 375:277-294). […] Filters were then air-dried, and 40 μl of liquid scintillation cocktail (Microscint-O) was added to each well, and membrane-bound [^35S]GTPγS was measured in a 96-well scintillation plate reader (Top-Count, Perkin-Elmer, USA). Non-specific [^35S]GTPγS binding is determined in the presence of cold 10 μM GTP. […]

The structures appear in SMILES notation.

T1 sequence (Q14416 19-872): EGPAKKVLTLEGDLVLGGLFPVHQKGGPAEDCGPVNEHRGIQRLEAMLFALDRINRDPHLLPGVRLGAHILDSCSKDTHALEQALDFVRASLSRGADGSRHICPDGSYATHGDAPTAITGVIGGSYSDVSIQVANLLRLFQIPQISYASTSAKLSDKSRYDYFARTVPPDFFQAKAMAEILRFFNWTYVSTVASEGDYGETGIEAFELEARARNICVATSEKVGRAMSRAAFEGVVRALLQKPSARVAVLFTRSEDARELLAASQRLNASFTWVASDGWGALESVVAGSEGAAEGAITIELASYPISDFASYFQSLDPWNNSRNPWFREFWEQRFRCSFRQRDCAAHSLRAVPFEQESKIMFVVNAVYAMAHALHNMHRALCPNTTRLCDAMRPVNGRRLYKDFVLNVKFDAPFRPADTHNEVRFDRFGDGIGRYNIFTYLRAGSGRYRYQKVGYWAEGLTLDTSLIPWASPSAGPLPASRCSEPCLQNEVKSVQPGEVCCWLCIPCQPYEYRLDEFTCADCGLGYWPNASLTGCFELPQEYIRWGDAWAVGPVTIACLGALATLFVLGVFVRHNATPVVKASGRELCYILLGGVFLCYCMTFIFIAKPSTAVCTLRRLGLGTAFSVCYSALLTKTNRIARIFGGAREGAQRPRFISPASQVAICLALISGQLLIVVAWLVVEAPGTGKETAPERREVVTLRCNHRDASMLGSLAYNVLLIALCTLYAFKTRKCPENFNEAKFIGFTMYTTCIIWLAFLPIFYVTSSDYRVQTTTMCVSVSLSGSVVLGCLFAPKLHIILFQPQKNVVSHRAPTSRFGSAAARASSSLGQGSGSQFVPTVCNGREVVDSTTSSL

Take `O=c1c(Cl)c(-c2ccc(OC3CCOCC3)c(Cl)c2)ccn1CCC1CC1` [Compound 4]: the melting point turned out to be 154 °C. The EC50 on human mGluR2 receptor is 0.275 µM.
On the same counts, the results for `CCCCn1ccc(-c2ccc(NC3CCC(C)(O)CC3)c(Cl)c2)c(Cl)c1=O` (centres unmarked) [Compound 7] are 227.4 °C and 0.0398 µM.
`O=c1c(Cl)c(-c2ccc(NC3CCOCC3)c(Cl)c2)ccn1CC1CC1` [Compound 6]: the melting point was determined as 231 °C. Further, the EC50 at human mGluR2 receptor was 0.575 µM.
In turn, `O=c1c(Cl)c(-c2ccc(NC3CCOCC3)c(C(F)(F)F)c2)ccn1CC1CC1` [Compound 5] displayed a melting point of 173 °C. The EC50 on human mGluR2 receptor was 0.813 µM.
